Test results from publication PMC9321663, “The DevTox Germ Layer Reporter Platform: An Assay Adaptation of the Human Pluripotent Stem Cell Test” (Toxics, 2022).
pIC50: −log10 of the molar value. Like-named read-outs stand apart in the source and are kept apart here.

Key:
[1] = tested on: o/c ratio in H9 embryonic stem cells; details: Teratogen Index, o/c ratio; cited from earlier work
[2] = tested on: SOX17 (endoderm marker) in RUES2-GLR cells; assay: DevTox GLR-Endo assay: decrease in percent SOX17-positive cells (AEID 3094, Sox17_dn); details: for Emax / AC50: Homo sapiens; for Hit Call: Table S2, SOX17-positive cells, cutoff 3*bmad; for DevTox ACC: Table S2, percent SOX17-positive cells; for HIT−CALL: tcpl plot AEID3094, COFF 20.3
In short: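 Readouts are loss of SOX17-positive fraction and reduced cell number in endoderm-differentiating RUES2-GLR cells after 48 h of chemical exposure. Controls: undifferentiated and differentiated cells, 0.2% DMSO, and 1 µM SB431542; at least four biological replicates.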

[3] = tested on: SOX2 (ectoderm and pluripotency marker) in RUES2-GLR cells; assay: DevTox GLR-Endo assay: increase in percent SOX2-positive cells (AEID 3095, Sox2_up); details: for MAX_MEAN: tcpl plot AEID3095, maximum mean response; for MAX_MED: tcpl plot AEID3095, maximum median response;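 as to all read-outs here: cells exposed to test chemicals for 48 h in total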
[4] = tested on: SOX17 (endoderm marker) in RUES2-GLR cells; assay: DevTox GLR-Endo assay: increase in percent SOX17-positive cells (AEID 3093, Sox17_up); type: cell-based, human; details: for Emax: Homo sapiens; for HIT−CALL: tcpl plot AEID3093, COFF 20.3
Experimental: (§1) The total test chemical incubation period was 48 h.
(§2) (Supplementary Materials).

RUES2-GLR cells = assay: DevTox GLR-Endo assay: decrease in total cell count, cytotoxicity (AEID 3098, CellCount_dn); details: for Emax: Homo sapiens, read-out: Cell Count % Max Inhibition
[5] = cited from earlier work; for Development Toxicant Classification: Table S2; for Classification: developmental toxicant classification (Teratogen / Non-Teratogen) of reference and training chemicals, ref DOI per chemical: 10.1093/toxsci/kft239, 10.1093/toxsci/kfaa014, 10.1177/026119290203000204, 10.1038/s41598-020-59542-x; for DT Class.: developmental toxicant classification; for Developmental Toxicant Classification: reference chemicals
[6] = tested on: BRA (mesoderm marker) in RUES2-GLR cells; assay: DevTox GLR-Endo assay: increase in percent BRA-positive cells (AEID 3096, Bra_up); type: cell-based, human; details: for HIT−CALL: tcpl plot AEID3096, COFF 0.774; for MAX_MEAN: tcpl plot AEID3096, maximum mean response; for MAX_MED: tcpl plot AEID3096, maximum median response
Experimental: as §1, §2

[7] = tested on: SOX17 in H9 human ESC line; details: SOX17 half-maximal inhibition concentration; read-out: hPST IC50; cited from earlier work
H9 human ESC line = details: cited from earlier work
in vitro = details: human
[8] = read-out: DevTox % Max Inhibition
[9] = read-out: ga (winning model), tcpl plot AEID3094, gain parameter of winning curve fit (log concentration, µM axis), hit calls only (converted)
[10] = tcpl plot AEID3093, maximum mean response, read-out: MAX_MEAN
[11] = tcpl plot AEID3093, maximum median response, read-out: MAX_MED
[12] = chemicals common with quickPredict
[13] = 48 h, read-out: DevTox-GLR Endo AC50 (µM), SOX17 half-maximal activity concentration, 48 h exposure
[14] = cytotoxicity half-maximal concentration
[15] = RUES2-GLR cells under directed endoderm differentiation

SMILES	Cell Count ACC (RUES2-GLR cells; human, 48 h) [µM]	Emax [2, 8] [%]	Emax ([2]; read-out: MAX_MEAN) [%]	Emax ([2]; read-out: MAX_MED) [%]	Hit Call [2]	DevTox ACC ([2]; 48 h exposure) [µM]	HIT−CALL [2]	MAX_MEAN [3] [Percent Activity]	MAX_MED [3] [Percent Activity]	Emax [4, 10] [%]	Emax [4, 11] [%]	HIT−CALL [4]	Emax (RUES2-GLR cells) [%]	Development Toxicant Classification [5]	Classification [5]	HIT−CALL [6]	MAX_MEAN [6] [Percent Activity]	MAX_MED [6] [Percent Activity]	AC50 [2, 13] [µM]	pIC50 [7]	further results
CO[C@H]1/C=C/O[C@@]2(C)Oc3c(C)c(O)c4c(O)c(c(/C=N/N5CCN(C)CC5)c(O)c4c3C2=O)NC(=O)/C(C)=C\C=C\[C@H](C)[C@H](O)[C@@H](C)[C@@H](O)[C@@H](C)[C@H](OC(C)=O)[C@@H]1C [Rifampicin]	18.1066	101	102	101	Positive	37.8542	1	0.548	0.542	7.3	7.36	0	92.4	Positive	Teratogen						quickPredict TI [1]: 2.46 µM; AC50 [2, 9]: 67.6 µM; Emax ([2]; read-out: tp (winning model)): 108%; DevTox-GLR Endo ACC ([2]; activity concentration at cutoff, SOX17-positive cells, 48 h exposure): 37.85 µM; DevTox-GLR Endo CC (RUES2-GLR cells; human, 48 h): 18.11 µM; DT Class. [5, 12]: Pos
Cc1nc2sccn2c(=O)c1CCN1CCC(=C(c2ccc(F)cc2)c2ccc(F)cc2)CC1 [Ritanserin]		102	102	102	Positive	8.389	1	2.33	1.82	-0.644	-1.38	0	94.7	Positive	Teratogen	1	2.65	3.04	9.98	5.14	AC50 [2, 9]: 9.98 µM; Emax ([2]; read-out: tp (winning model)): 102%; AC50 ([3]; Homo sapiens, read-out: ga (winning model)): 158 µM; Emax ([3]; Homo sapiens, read-out: tp (winning model)): 4.15%; hPST TC50 (H9 human ESC line; [14]): 27 µM; hPST TC50 (H9 human ESC line; hPST cytotoxicity): 27 µM; CC50 at 48 h (in vitro; [15]): 9.47 µM; Cell Count ACC (RUES2-GLR cells; Table S2, 48 h exposure): 6.426 µM; DT Class. ([5]; chemicals common with hPST): Pos

Further lines, with some results ahead:

Cell Count ACC (RUES2-GLR cells; human, 48 h) [µM]	SMILES	Emax [2, 8] [%]	Emax ([2]; read-out: MAX_MEAN) [%]	Emax ([2]; read-out: MAX_MED) [%]	Hit Call [2]	DevTox ACC ([2]; 48 h exposure) [µM]	HIT−CALL [2]	MAX_MEAN [3] [Percent Activity]	MAX_MED [3] [Percent Activity]	Emax [4, 10] [%]	Emax [4, 11] [%]	HIT−CALL [4]	Emax (RUES2-GLR cells) [%]	Development Toxicant Classification [5]	Classification [5]	HIT−CALL [6]	MAX_MEAN [6] [Percent Activity]	MAX_MED [6] [Percent Activity]	AC50 [2, 13] [µM]	pIC50 [7]	further results
>200	O=C1NS(=O)(=O)c2ccccc21 [Saccharin]	13	11	13	Negative	>200	0	0.945	0.563	10.2	10.9	0	17.9	Negative	Non-Teratogen	0	1.1	1.04	> 200	< 3.40	hPST TC50 (H9 human ESC line; [14]): >400 µM; hPST TC50 (H9 human ESC line; hPST cytotoxicity): > 400 µM; CC50 at 48 h (in vitro): > 200 µM; DT Class. ([5]; chemicals common with hPST): Neg; DT Class. [5, 12]: Neg; Developmental Toxicant Classification [5]: Negative
>200	O=C(O)c1cccnc1 [Niacin, Nicotinic acid]	6.06	5.21	6.06	Negative		0	0.611	0.561	11.3	11.4	0	10.8	Negative	Non-Teratogen	0	0.818	0.865	> 200	< 3.70	hPST TC50 (H9 human ESC line; [14]): >200 µM; hPST TC50 (H9 human ESC line; hPST cytotoxicity): > 200 µM; CC50 at 48 h (in vitro): > 200 µM; DT Class. ([5]; chemicals common with hPST): Neg
>200	CC(=O)Oc1ccccc1C(=O)O [Aspirin]	12.4	13.1	12.4	Negative	>200	0	0.503	0.512	-3.36	-3.07	0	2.85	Negative	Non-Teratogen	1	1.04	1.03	> 200	< 3.70	hPST TC50 (H9 human ESC line; [14]): >200 µM; hPST TC50 (H9 human ESC line; hPST cytotoxicity): > 200 µM; CC50 at 48 h (in vitro; [15]): > 200 µM; DT Class. ([5]; chemicals common with hPST): Neg; DT Class. [5, 12]: Neg; Developmental Toxicant Classification [5]: Negative
